The target in this assay is T1, Botrytis aclada laccase (BaL WT) (Botrytis aclada, UniProt H8ZRU2).
T1 construct: BaL cDNA, secreted recombinant from Pichia pastoris X-33 (pGAPZ A, pBaLac)
T1 sequence (H8ZRU2 20-580): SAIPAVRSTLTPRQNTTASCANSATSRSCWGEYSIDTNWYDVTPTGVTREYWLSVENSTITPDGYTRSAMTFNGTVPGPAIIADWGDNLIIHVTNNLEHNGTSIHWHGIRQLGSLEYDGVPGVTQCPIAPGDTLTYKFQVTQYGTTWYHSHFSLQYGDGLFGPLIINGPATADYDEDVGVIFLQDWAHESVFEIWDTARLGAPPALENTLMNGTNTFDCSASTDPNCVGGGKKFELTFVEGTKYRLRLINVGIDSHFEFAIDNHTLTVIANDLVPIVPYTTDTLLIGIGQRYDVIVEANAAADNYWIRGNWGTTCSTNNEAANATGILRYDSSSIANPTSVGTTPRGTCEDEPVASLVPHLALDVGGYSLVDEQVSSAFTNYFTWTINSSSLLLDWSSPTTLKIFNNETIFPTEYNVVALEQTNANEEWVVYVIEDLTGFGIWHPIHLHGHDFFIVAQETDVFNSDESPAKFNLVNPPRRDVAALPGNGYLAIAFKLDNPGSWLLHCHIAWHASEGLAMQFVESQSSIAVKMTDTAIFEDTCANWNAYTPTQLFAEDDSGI
Put plainly: steady-state photometric kinetics, Michaelis-Menten fit. Format: biochemical. The conditions noted are these: pH 3.0, 4.5 and 6.0; apparent constants.

In PMC5651918, “Evolving stability and pH-dependent activity of the high redox potential Botrytis aclada laccase for enzymatic fuel cells” (Scientific Reports, 2017) one finds KM data, which are given here for two molecules.

Turning to `COc1cccc(OC)c1O` [DMP, 2,6-dimethoxyphenol], the KM entry is “apparent steady-state kinetic constants were determined for the two substrates DMP and ABTS”. Then `CCn1c(=NN=c2sc3cc(S(=O)(=O)O)ccc3n2CC)sc2cc(S(=O)(=O)O)ccc21` [ABTS, 2,2′-azino-bis(3-ethylbenzothiazoline-6-sulfonic acid)], with “apparent steady-state kinetic constants were determined for the two substrates DMP and ABTS”.
